This note sets out measurements from US20250361214A1, “TRIAZINE LIPIDS, LIPID SYNTHESIS, AND METHODS FOR INHIBITING CANONICAL NFKB TRANSCRIPTIONAL ACTIVITY” (University of Kentucky Research Foundation, priority 2022, published 2025).

Like-named read-outs stand apart in the source and are kept apart here.

The test system of data set [1] is BALB/c mice. As to the kind of experiment: Anti-hAAT antibody titers and IgG subclass ratios. The class given is in vivo, mouse. As to conditions: for increase of anti-hAAT titers: 25 μg hAAT protein administered with 1 mM lipid, day 14. Here is the method: To assess the presence of antibodies toward hAAT, 50 μL of hAAT (OriGene #RG202082) was plated at 2 μg/mL in carbonate buffer, pH 9.7, on a 96 well high binding plate (Greiner #82050-720) and incubated overnight at 4° C. The next day, the plates were washed with PBS containing 0.1% Tween-20 (PBS-T) and blocked for 1 hour with PBS-C at 37° C. After blocking, serum samples were plated at dilutions ranging from 1:100 to 1:1,000,000 and incubated at 37° C. for 2 hours. Secondary antibody (goat anti-mouse IgG HRP; Invitrogen #16066) diluted 1:2000 was applied for 30 min at 37° C., followed by a 30 min. incubation with tetramethylbenzidine (Rockland). Absorbance at 450 nm was recorded using a BioTek Synergy H1 microplate reader. Reciprocal endpoint titers were determined by plotting A450 values versus known dilutions, calculating the slope of that line, and dividing the slope by two times the average of the blank (no serum) wells.
Anti-hAAT IgG subclass ratios were assessed as described above, using a single 1:100 sample dilution and the following detection antibodies: goat anti-mouse IgG1-HRP (Abcam ab98693) at 1:10,000, IgG2a-HRP (Abcam ab98698) at 1:5000, IgG2b-HRP (Abcam ab98703) at 1:10,000 and IgG3 (Jackson 115-035-209) at 1:5000. Subclass ratios were calculated by dividing the absorbance of each subclass by that of IgG1 for each individual mouse.

The subject of data set [2] is bone marrow derived macrophages. Nature of the data set: in vitro. The format is cell-based. As to the method:
Cell Culture of Bone Marrow-Derived Macrophages. […] After 7 days, the cells were transferred to tissue culture 96 well plates (Corning) at a density of 100,000 in 20 μL of medium and allowed to settle overnight for subsequent assays.
Lactate Dehydrogenase Release (LDH) Toxicity Assay. For determination of cytotoxicity, mature bone marrow-derived macrophages (BMDM) were treated with 20 μL of the lipids (concentrations denoted in figure legend) diluted in 20 mM HEPES buffer, with HEPES buffer as negative control and 10% Triton X-100 as positive control. After 24 hours, the 96 well plates were centrifuged at 200×g for 5 minutes to remove debris and 100 μL of media was transferred to an untreated flat-bottom 96 well plate. Next, 100 μL of LDH reaction reagent purchased from Cayman Chemical (Ann Arbor, MI) was added to each and allowed to sit for 30 minutes at 37° C. Absorbance at 490 and 680 nm were measured using a BioTek Synergy H1 plate reader and the data were processed using Microsoft Excel. Mean values from triplicates are shown for one of two independent experiments.

The nature of data set [3]: Size and charge determination of nanoparticles (Zetasizer Nano ZS), Example 1. The class given is physicochemical. The text has this: Size and Charge Determination.
Data set [4] has as its system BALB/c mice. As to the kind of experiment: In vivo hAAT transfection efficiency, serum ELISA and ALT. As to conditions: LPs (50% cationic lipid, 50% DOPE), 10,000 ng hAAT plasmid DNA i.p., 72 hours. Also on record: species or system mouse. Here is the method: To assess in vivo hAAT transfection efficiency, mice were administered 200 μL nanoparticles or PBS vehicle i.p. at the doses indicated in the figure legend. Seventy-two hours after injection the mice were bled again for assessment of ALT levels and hAAT expression. hAAT levels were determined via ELISA using serum diluted 1:1 in PBS containing 0.05% casein (PBS-C; 124250; Beantown Chemical), as described previously.^38

In another data set the test system is canonical NFKB. As to the kind of experiment: THP-1-Blue NFKB reporter (SEAP) assay. The class given is cell-based, human. As to conditions: read-out: IC50, canonical NFKB inhibition.
Another data set concerns C57BL/6J mice. Nature of the data set: In vivo toxicity of cationic lipid nanoparticles (ALT, IL-6, SCr, mortality). As to conditions: 20 mM lipid, i.p., versus baseline.
The nature of data set [5]: Characterization of nanoparticles (size, zeta potential, DNA encapsulation), Example 2. The class given is physicochemical. As to conditions: LNPs made with the cationic lipid. As to the method: The concentration of DNA in LNPs after dialysis was quantified using an AccuClear® Ultra High Sensitivity dsDNA Quantification Kit (Biotium #31027) and quantified on a BioTek Synergy H1 plate reader. Encapsulation efficiencies were determined by comparing the amount of DNA in the LNP solution vs. the DNA solution used to make them, after disrupting the LNPs with 0.5% Cl2E10 (Abcam #ab146563) and adjusting for volume differences (i.e.: excess volume added during dialysis and dilution volume during ethanol mixture).

Data set [6] in a line: Differential scanning calorimetry, transition temperature (Tm) of lipids. As to conditions: liposomes of pure lipid, 10 mM in 20 mM HEPES, DSC. The format is physicochemical. Here is the method:
Differential Scanning calorimetery. The transition temperature (Tm) of the lipids was determined using a multicell differential scanning calorimeter (TA Instruments). Liposomes were made with triazine lipids at a concentration of 10 mM in 20 mM HEPES buffer. These were heated to 60° C. and sonicated until the solution was translucent. For Tm determination, 250 μL of the liposome solution was transferred into reusable hastelloy ampoules while 250 μL of the HEPES solution was transferred to the third ampoule, leaving the reference ampoule empty. […] Data was collected over a range of 10-110° C. at a rate of 2° C. min-1 in a heat-cool-heat cycle. After the run was complete, the CpCalc 2.1 software package was used to convert the raw data into a molar heat capacity and the data from the second heating cycle were processed using Microsoft Excel.
Background: In DSC, transitions show as peaks or steps in heat flow.

Data set [7] can be described thus: Nanoparticle pKa via TNS fluorescence. As to conditions: liposomes, pH 2.5 to 12. The format is physicochemical. Here is the method: Determination of Nanoparticle pKa via TNS Fluorescence. […] The solutions were mixed by pipetting and incubated at room temperature for 10 minutes, before being analysed for fluorescence intensity using a 321 nm excitation and 445 nm emission wavelengths.

Setting [8] is: liposomes, lipid:DOPE mixtures, lipoplexes, immunization liposomes (Table 2).
The mark [9] stands for this setting: nanoparticles of pure lipid (Table 1).
Setting [10] is: nanoparticles of pure lipid, 1 mM, 25° C. (Table 1).
[11] abbreviates: zeta potential, nanoparticles of pure lipid (Table 1).
Setting [12] is: unstable nanoparticles of lipids 11 and 12, text.

As to `CCCCCCCCCCCCCCCCCC(=O)OC[C@@H](COP(=O)([O-])OCC[N+](C)(C)C)OC(=O)CCCCCCCCCCCCCCCCC` (stereo in doubt) [DSPC, 1,2-distearoyl-sn-glycero-3-phosphocholine, reference compound], the “increase of anti-hAAT titers” value with BALB/c mice [1] was 100 fold.

On to `CCCCCCCCCCCCCC(=O)OC[C@H](COP(=O)([O-])OCC[N+](C)(C)C)OC(=O)CCCCCCCCCCCCC` [DMPC, 1,2-Dimyristoyl-sn-glycero-3-phosphocholine, reference compound], for which the LD50 in [2] (LDH activity, BMDMs incubated 24 hours, text of Example 3) was 969 µM; in [2] (LDH release, 24 hours (Table 2)), 969 µM. Moreover, the PDI in data set [3] (Table 2) is reported as 0.39 ± 0.01. For the same compound, in data set [3] (setting [8]), the Size amounted to 277 ± 45 nm. The Charge in data set [3] (zeta potential (Table 2)) was −9 ± 0.3 mV.

As for `CCCCCCCC/C=C\CCCCCCCC(=O)OCC(C[N+](C)(C)C)OC(=O)CCCCCCC/C=C\CCCCCCCC.[Cl-]` (stereo not shown) [DOTAP, 1,2-dioleoyl-3-trimethylammonium propane, reference compound], in the data set on BALB/c mice [1], the “increase of anti-hAAT titers” value amounted to 10 fold. Besides, the “anti-hAAT IgG titers” value in the data set on BALB/c mice [1] (transgene delivery, 10 μg hAAT DNA, day 14, versus untreated mice) is reported as “significantly higher anti-hAAT titers than untreated mice”. In addition, the “Th1/Th2 response (ratios of IgG2a, 2b, and 3 over IgG1)” value with BALB/c mice [1] (transgenic hAAT delivery with LPs) was “balanced Th1/Th2 response”. For the same compound, the “average hAAT levels in serum” value in the data set on BALB/c mice [4] came to 3 ng/mL. In addition, in the data set on canonical NFKB (Homo sapiens, 24 h), the IC50 turned out to be 28 µM. Also, the “interleukin 6 (IL-6)” value in the data set on C57BL/6J mice is listed as “neither these nor the IL-6 elevation in DOTAP-treated mice reached statistical significance”. Further, the “encapsulation of DNA (general)” value in data set [5] is on record as 70-80%.

Consider `CCCCCCCC/C=C\CCCCCCCCOCC(C[N+](C)(C)C)OCCCCCCCC/C=C\CCCCCCCC` (stereo not shown) [DOTMA, 1,2-di-O-octadecenyl-3-trimethylammonium propane, reference compound], for which the PDI in data set [3] (Table 2) worked out at 0.43 ± 0.06. For the same compound, the Size in [3] (setting [8]) is 105 ± 2 nm. Further, in data set [3] (zeta potential (Table 2)), the Charge stood at 70 ± 4 mV.

In the case of `CCCCCCCCCCCCN(CCCCCCCCCCCC)c1nc(NCCC(=O)O)nc(NCCC(=O)O)n1` [Lipid 1], in data set [2], the IC50 is 1100 µM. In addition, in data set [3] (setting [9]), the PDI was 0.24 ± 0.02. This compound also returned a Size in data set [3] (setting [10]) of 124 ± 2 nm. For the same compound, in [3] (setting [11]), the Charge is −63 ± 4 mV. Also, the Tm in data set [6] is < 10 °C.

Take `CCCCCCCCCCCCCCCCCCN(CCCCCCCCCCCCCCCCCC)c1nc(NCCCN)nc(NCCCN)n1` [Lipid 4]: the IC50 in [2] is 180 µM; in the data set with canonical NFKB (THP-1-Blue cells stimulated with TNFα, 24 h lipid treatment), 29 µM. Besides, in data set [3] (setting [9]), the PDI came out at 0.28 ± 0.00. The same compound showed a Size in data set [3] (setting [10]) of 326 ± 1 nm. Moreover, the Charge in data set [3] (setting [11]) is on record as 63 ± 3 mV. Further, the Tm in data set [6] worked out at 33 °C. Besides, the pKa in [7] worked out at 5.59.

For `CCCCCCCCCCCCN(CCCCCCCCCCCC)c1nc(NCCS)nc(NCCC(=O)O)n1` [Lipid 5], the IC50 in [2] stood at 679 µM. Also, the PDI in [3] (setting [9]) amounted to 0.40 ± 0.00. Moreover, in [3] (setting [10]), the Size is given as 87 ± 2 nm. Besides, in data set [3] (setting [11]), the Charge is on record as −73 ± 6 mV. Further, the Tm in data set [6] is < 10 °C.

As to `CCCCCCCCCCCCCCCCCCN(CCCCCCCCCCCCCCCCCC)c1nc(NCCS)nc(NCCC(=O)O)n1` [Lipid 6], in [2], the IC50 is 988 µM. Further, the PDI in [3] (setting [9]) came to 0.27 ± 0.01. In addition, the Size in data set [3] (setting [10]) turned out to be 93 ± 2 nm. Also, the Charge in [3] (setting [11]) is listed as −71 ± 5 mV. Besides, the Tm in data set [6] was 40 °C.

As for `CCCCCCCCCCCCCCCCCCN(CCCCCCCCCCCCCCCCCC)c1nc(NCCCN(C)C)nc(NCCCN(C)C)n1` [Lipid 10], in data set [2] (LDH release, 24 hours (Table 1), read-out: ID50 (the source's name)), the IC50 worked out at 261 µM. In data set [3] (setting [9]), the PDI was determined as 0.28 ± 0.01. For the same compound, the Size in [3] (setting [10]) was determined as 186 ± 1 nm. Further, the Charge in data set [3] (setting [11]) is recorded as 47 ± 1 mV. Further, the Tm in data set [6] came out at 28 °C.

Take `CCCCCCCCCCCCN(CCCCCCCCCCCC)c1nc(NCCCN)nc(NCCC(=O)O)n1` [Lipid 11]: in data set [2], the IC50 turned out to be 277 µM. The PDI result in data set [3] (setting [9]) is listed as “Unstable Unstable”; in data set [3] (setting [12]) it was 0.98. In data set [3] (setting [10]), the Size entry is “Unstable Unstable”. The compound further registered a Charge in data set [3] (setting [11]) of 42 ± 5 mV. Also, the Tm in [6] is < 10 °C.

Consider `CCCCCCCCCCCCCCCCCCN(CCCCCCCCCCCCCCCCCC)c1nc(NCCCN)nc(NCCC(=O)O)n1` [Lipid 12], for which, in [2], the IC50 came to 227 µM. For the same compound, the PDI result is “Unstable Unstable” in data set [3] (setting [9]) and 0.51 in data set [3] (setting [12]). In addition, in [3] (setting [10]), the Size result is reported as “Unstable Unstable”. In [3] (setting [11]), this compound gave a Charge of 70 ± 5 mV. In data set [6], the Tm was 42 °C.

As usually defined, the pKa is the negative logarithm of the acid dissociation constant. A lower pKa goes with a stronger acid or weaker base.
